Assay results: ChEMBL document CHEMBL3286359, “Synthesis and SAR of substituted pyrazolo[1,5-a]quinazolines as dual mGlu(2)/mGlu(3) NAMs” (Bioorg Med Chem Lett, 2014)
Calls of active or inactive are those of the source. The rule behind the calls is not given here.

Assays:
Format in all cases: functional, cell-based
[1] = target: Metabotropic glutamate receptor 3 (Rattus norvegicus) (UniProt P31422); assay: Inhibition of rat mGlu3 receptor transfected in HEK293 cells coexpressing mouse Galpha15 assessed as decrease in glutamate-induced calcium signaling at 3 uM by fluorescence plate reader analysis in presence of glutamate at EC87 concentration
Chain of Metabotropic glutamate receptor 3 (Rattus norvegicus) (P31422 23-879 limits assumed): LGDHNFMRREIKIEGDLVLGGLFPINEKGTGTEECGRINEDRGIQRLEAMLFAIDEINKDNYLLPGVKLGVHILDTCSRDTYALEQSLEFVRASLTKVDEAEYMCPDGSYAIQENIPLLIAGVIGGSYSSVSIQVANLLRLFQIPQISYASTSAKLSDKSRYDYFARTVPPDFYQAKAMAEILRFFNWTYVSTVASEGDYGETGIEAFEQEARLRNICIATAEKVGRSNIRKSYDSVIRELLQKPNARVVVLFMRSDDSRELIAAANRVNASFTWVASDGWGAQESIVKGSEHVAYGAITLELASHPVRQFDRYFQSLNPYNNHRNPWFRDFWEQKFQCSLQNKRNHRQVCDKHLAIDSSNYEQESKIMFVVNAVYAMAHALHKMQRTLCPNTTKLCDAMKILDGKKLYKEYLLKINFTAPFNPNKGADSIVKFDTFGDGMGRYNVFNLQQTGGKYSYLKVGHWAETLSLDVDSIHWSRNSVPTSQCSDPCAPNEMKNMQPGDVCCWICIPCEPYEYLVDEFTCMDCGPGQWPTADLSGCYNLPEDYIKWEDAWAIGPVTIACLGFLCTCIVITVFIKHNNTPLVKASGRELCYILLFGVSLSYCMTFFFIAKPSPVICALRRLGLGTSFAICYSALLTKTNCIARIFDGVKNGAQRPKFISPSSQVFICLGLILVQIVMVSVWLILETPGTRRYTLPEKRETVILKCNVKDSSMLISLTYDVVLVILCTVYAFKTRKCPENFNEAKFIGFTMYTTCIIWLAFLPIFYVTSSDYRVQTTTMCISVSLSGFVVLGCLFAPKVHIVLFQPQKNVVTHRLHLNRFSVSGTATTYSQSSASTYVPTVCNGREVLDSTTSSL

[2] = target: Metabotropic glutamate receptor 2 (Rattus norvegicus) (UniProt P31421); assay: Positive allosteric modulatory activity at rat mGlu2 receptor transfected in HEK293 cells co-expressing mouse Galpha15 assessed as potentiation of glutamate-dependent calcium signaling at 3 uM by fluorescence plate reader analysis in presence of glutamate at EC20 concentration
Chain of Metabotropic glutamate receptor 2 (Rattus norvegicus) (P31421 19-872 limits assumed): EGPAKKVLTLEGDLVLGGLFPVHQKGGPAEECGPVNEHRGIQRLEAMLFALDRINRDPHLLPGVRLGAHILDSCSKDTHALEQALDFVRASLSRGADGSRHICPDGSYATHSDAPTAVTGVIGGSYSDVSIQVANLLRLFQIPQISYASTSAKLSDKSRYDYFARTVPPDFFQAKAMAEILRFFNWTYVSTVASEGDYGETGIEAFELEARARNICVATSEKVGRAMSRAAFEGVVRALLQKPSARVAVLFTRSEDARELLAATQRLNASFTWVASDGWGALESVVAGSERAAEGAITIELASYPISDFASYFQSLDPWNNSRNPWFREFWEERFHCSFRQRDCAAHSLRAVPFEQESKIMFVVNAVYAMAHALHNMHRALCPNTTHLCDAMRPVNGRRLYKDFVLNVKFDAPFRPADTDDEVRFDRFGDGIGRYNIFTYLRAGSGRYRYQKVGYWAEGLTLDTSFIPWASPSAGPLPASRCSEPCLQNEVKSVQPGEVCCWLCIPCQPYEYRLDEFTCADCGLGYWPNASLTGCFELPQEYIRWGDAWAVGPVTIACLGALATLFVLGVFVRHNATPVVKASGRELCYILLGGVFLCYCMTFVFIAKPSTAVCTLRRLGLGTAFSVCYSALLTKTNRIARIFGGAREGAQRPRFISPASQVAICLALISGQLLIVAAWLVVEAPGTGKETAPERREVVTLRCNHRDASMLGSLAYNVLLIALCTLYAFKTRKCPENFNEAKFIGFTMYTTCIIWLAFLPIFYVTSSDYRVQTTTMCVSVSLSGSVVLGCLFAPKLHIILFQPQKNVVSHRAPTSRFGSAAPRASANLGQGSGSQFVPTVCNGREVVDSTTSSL

[3] = target: Metabotropic glutamate receptor 3 (Rattus norvegicus) (UniProt P31422); assay: Positive allosteric modulatory activity at rat mGlu3 receptor transfected in HEK293 cells co-expressing mouse Galpha15 assessed as potentiation of glutamate-dependent calcium signaling at 3 uM by fluorescence plate reader analysis in presence of glutamate at EC20 concentration
[4] = target: Metabotropic glutamate receptor 3 (Rattus norvegicus, UniProt P31422); assay: Inhibition of rat mGlu3 receptor transfected in HEK293 cells coexpressing mouse Galpha15 assessed as decrease in glutamate-induced calcium signaling by fluorescence plate reader analysis in presence of glutamate at EC87 concentration
Chain of Metabotropic glutamate receptor 3 (P31422 whole entry): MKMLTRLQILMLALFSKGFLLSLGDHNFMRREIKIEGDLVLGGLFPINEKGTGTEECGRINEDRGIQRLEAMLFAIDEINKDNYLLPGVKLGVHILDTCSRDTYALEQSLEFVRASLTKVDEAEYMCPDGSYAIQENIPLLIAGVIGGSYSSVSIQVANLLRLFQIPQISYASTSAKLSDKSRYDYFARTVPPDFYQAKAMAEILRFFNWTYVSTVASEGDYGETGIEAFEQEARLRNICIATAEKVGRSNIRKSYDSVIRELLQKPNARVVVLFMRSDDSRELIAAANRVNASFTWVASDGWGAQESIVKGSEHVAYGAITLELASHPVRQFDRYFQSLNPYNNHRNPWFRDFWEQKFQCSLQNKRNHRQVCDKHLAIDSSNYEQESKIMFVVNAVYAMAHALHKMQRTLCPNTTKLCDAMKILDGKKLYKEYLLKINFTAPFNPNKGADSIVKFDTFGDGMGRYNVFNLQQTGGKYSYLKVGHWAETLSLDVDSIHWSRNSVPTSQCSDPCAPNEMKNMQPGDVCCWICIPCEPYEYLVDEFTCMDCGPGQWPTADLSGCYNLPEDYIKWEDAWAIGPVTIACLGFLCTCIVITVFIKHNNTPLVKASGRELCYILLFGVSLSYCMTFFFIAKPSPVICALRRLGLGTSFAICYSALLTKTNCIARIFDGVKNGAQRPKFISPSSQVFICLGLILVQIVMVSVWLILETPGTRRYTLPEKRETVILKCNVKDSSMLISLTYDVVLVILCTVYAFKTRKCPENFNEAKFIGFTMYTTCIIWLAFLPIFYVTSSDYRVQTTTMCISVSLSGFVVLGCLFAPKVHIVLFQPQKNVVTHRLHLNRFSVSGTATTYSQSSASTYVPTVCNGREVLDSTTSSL

[5] = target: Metabotropic glutamate receptor 2 (Rattus norvegicus, UniProt P31421); assay: Inhibition of rat mGlu2 receptor transfected in HEK293 cells coexpressing mouse Galpha15 assessed as decrease in glutamate-induced calcium signaling by fluorescence plate reader analysis in presence of glutamate at EC76 concentration
Chain of Metabotropic glutamate receptor 2 (P31421 whole entry): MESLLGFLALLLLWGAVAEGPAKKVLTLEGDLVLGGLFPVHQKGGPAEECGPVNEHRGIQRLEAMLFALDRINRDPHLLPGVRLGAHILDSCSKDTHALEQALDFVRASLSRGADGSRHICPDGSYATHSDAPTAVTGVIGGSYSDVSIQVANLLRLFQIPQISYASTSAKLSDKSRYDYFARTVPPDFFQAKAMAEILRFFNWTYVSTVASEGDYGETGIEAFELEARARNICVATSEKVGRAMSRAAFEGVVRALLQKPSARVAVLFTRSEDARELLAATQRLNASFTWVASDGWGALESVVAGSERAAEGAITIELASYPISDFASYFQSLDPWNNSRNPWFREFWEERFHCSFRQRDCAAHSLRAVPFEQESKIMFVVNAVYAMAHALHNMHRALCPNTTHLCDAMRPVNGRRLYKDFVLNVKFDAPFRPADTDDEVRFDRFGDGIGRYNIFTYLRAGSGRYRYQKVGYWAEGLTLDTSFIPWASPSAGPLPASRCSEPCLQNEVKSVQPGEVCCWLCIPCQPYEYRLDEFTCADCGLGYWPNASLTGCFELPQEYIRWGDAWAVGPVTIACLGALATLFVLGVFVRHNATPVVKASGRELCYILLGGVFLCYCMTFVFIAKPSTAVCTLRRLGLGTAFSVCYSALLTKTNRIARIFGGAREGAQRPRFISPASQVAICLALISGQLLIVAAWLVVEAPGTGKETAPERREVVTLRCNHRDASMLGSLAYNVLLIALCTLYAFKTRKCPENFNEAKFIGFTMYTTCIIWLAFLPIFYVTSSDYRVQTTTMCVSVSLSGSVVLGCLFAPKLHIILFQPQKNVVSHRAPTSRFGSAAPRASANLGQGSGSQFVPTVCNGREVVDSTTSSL

[6] = target: Metabotropic glutamate receptor 2 (Rattus norvegicus) (UniProt P31421); assay: Inhibition of rat mGlu2 receptor transfected in HEK293 cells coexpressing mouse Galpha15 assessed as decrease in glutamate-induced calcium signaling at 3 uM by fluorescence plate reader analysis in presence of glutamate at EC76 concentration
[7] = target: Metabotropic glutamate receptor 2 (Rattus norvegicus) (UniProt P31421); assay: Inhibition of rat mGlu2 receptor transfected in HEK293 cells coexpressing mouse Galpha15 assessed as decrease in glutamate-induced calcium signaling at 1 uM by fluorescence plate reader analysis in presence of glutamate at EC76 concentration
[8] = target: Metabotropic glutamate receptor 3 (Rattus norvegicus) (UniProt P31422); assay: Inhibition of rat mGlu3 receptor transfected in HEK293 cells coexpressing mouse Galpha15 assessed as decrease in glutamate-induced calcium signaling at 1 uM by fluorescence plate reader analysis in presence of glutamate at EC87 concentration

SMILES | inhibition [1] [%] | Activity [2] | Activity [3] | IC50 [4] [nM] | IC50 [5] [nM] | inhibition [6] [%] | inhibition [7] [%] | inhibition [8] [%]
COc1ccc(-c2ccc3c(=O)n(C)c4cc(-c5ccccc5)nn4c3c2)cc1 | 0 | inactive | inactive |  |  |  |  | 
Cn1c(=O)c2ccc(-c3ccc4cn[nH]c4c3)cc2n2nc(-c3ccccc3)cc12 |  |  |  | > 10000 | > 10000 |  |  | 
COc1ccc(-c2ccc3c(=O)n(C)c4cc(-c5cccc(C)c5)nn4c3c2)cc1 | 34 | inactive | inactive |  |  | 0 |  | 
CC(=O)n1c(=O)c2ccc(-c3ccccc3)cc2n2nc(-c3ccccc3)cc12 | 8 |  |  |  |  | 3 |  | 
Cn1c(=O)c2ccc(-c3ccc4cc[nH]c4c3)cc2n2nc(-c3ccccc3)cc12 | 34 |  |  |  |  | 9 |  | 
Cn1c(=O)c2ccc(-c3ccccc3)cc2n2nc(-c3ccc(F)cc3)cc12 | 64 | inactive | inactive |  |  | 12 |  | 
Cc1cccc(-c2cc3n(C)c(=O)c4ccc(-c5cccnc5)cc4n3n2)c1 |  | inactive | inactive | 530 | 1790 |  |  | 
O=c1[nH]c2cc(-c3ccccc3)nn2c2cc(-c3cccnc3)ccc12 | 8 |  |  |  |  | 4 |  | 
Cn1c(=O)c2ccc(-c3cccc(S(N)(=O)=O)c3)cc2n2nc(-c3cccc(F)c3)cc12 |  | inactive | inactive | > 10000 | > 10000 |  |  | 
COc1cccc(-c2cc3n(C)c(=O)c4ccc(-c5cccnc5)cc4n3n2)c1 |  | inactive | inactive | 1180 | 3120 |  |  | 
COc1ccc(-c2ccc3c(=O)n(C)c4cc(-c5cccc(OC)c5)nn4c3c2)cc1 | 48 | inactive | inactive |  |  | 6 |  | 
O=c1c2ccc(-c3cccnc3)cc2n2nc(-c3ccccc3)cc2n1CCO |  |  |  | 3150 | 4650 |  |  | 
Cn1c(=O)c2ccc(-c3cccc(S(N)(=O)=O)c3)cc2n2nc(-c3ccccc3)cc12 |  | inactive | inactive | 884 |  |  |  | 
Cn1c(=O)c2ccc(-c3ccccc3)cc2n2nc(-c3ccccc3)cc12 |  | inactive | inactive | > 10000 | > 10000 |  |  | 
Cn1c(=O)c2ccc(-c3cccc(S(N)(=O)=O)c3)cc2n2nc(-c3ccc(Cl)cc3)cc12 |  | inactive | inactive | 1250 | 847 |  | 60 | 60
Cn1c(=O)c2ccc(-c3cnc4ccccc4c3)cc2n2nc(-c3ccccc3)cc12 | 33 |  |  |  |  | 4 |  | 
Cn1c(=O)c2ccc(-c3ccccc3)cc2n2nc(-c3cccc(Cl)c3)cc12 | 19 | inactive | inactive |  |  | 7 |  | 
Cn1c(=O)c2ccc(-c3ccccc3)cc2n2nc(-c3cccc(Br)c3)cc12 | 28 | inactive | inactive |  |  | 8 |  | 
Cc1cccc(-c2cc3n(C)c(=O)c4ccc(-c5ccccc5)cc4n3n2)c1 | 49 | inactive | inactive |  |  | 7 |  | 
COc1cccc(-c2cc3n(C)c(=O)c4ccc(-c5cccc(S(N)(=O)=O)c5)cc4n3n2)c1 |  | inactive | inactive | 696 | 1390 |  |  | 
COc1cccc(-c2cc3n(C)c(=O)c4ccc(-c5ccccc5)cc4n3n2)c1 |  | inactive | inactive | > 10000 | > 10000 |  |  | 
Cn1c(=O)c2ccc(-c3cccnc3)cc2n2nc(-c3cccc(Cl)c3)cc12 |  | inactive | inactive | 293 | 564 |  |  | 
COc1cccc(-c2cc3n(C)c(=O)c4ccc(C)cc4n3n2)c1 |  | inactive | inactive | > 10000 | > 10000 |  |  | 

SMILES | inhibition [1] [%] | Activity [2] | Activity [3] | IC50 [4] [nM] | IC50 [5] [nM] | inhibition [6] [%] | inhibition [7] [%] | inhibition [8] [%]
Cn1c(=O)c2ccc(-c3ccc4ccncc4c3)cc2n2nc(-c3ccccc3)cc12 |  |  |  | 4510 | > 10000 |  |  | 
Cn1c(=O)c2ccc(-c3cccc(S(N)(=O)=O)c3)cc2n2nc(-c3ccc(F)cc3)cc12 |  | inactive | inactive | 1990 | 3950 |  |  | 
Cn1c(=O)c2ccc(-c3cccnc3)cc2n2nc(-c3ccccc3)cc12 |  | inactive | inactive | 165 | 852 |  |  | 
COc1ccc(-c2ccc3c(=O)n(C)c4cc(-c5cccc(Cl)c5)nn4c3c2)cc1 | 31 | inactive | inactive |  |  | 9 |  | 
Cn1c(=O)c2ccc(-c3ccc4nccnc4c3)cc2n2nc(-c3ccccc3)cc12 | 16 |  |  |  |  | 0 |  | 
Cn1c(=O)c2ccc(-c3cccnc3)cc2n2nc(-c3cccc(Br)c3)cc12 |  | inactive | inactive | > 10000 | > 10000 |  |  | 
COc1ccc(-c2ccc3c(=O)n(C)c4cc(-c5ccc(Cl)cc5)nn4c3c2)cc1 | 21 | inactive | inactive |  |  | 6 | 60 | 60
Cn1c(=O)c2ccc(-c3cccnc3)cc2n2nc(-c3ccc(F)cc3)cc12 |  | inactive | inactive | 67 | 427 |  |  | 
Cn1c(=O)c2ccc(-c3ccccc3)cc2n2nc(-c3cccc(F)c3)cc12 | 39 | inactive | inactive |  |  | 2 |  | 
Cn1c(=O)c2ccc(-c3ccncc3)cc2n2nc(-c3ccccc3)cc12 |  |  |  | 509 | 1770 |  |  | 
Cc1ccc2c(=O)n(C)c3cc(-c4cccc(F)c4)nn3c2c1 | 38 | inactive | inactive |  |  | 16 |  | 
Cn1c(=O)c2ccc(-c3cccnc3)cc2n2nc(-c3ccc(Cl)cc3)cc12 |  | inactive | inactive | 645 | 1110 |  | 60 | 60
COc1ccc(-c2ccc3c(=O)n(C)c4cc(-c5ccc(F)cc5)nn4c3c2)cc1 |  | inactive | inactive | > 10000 | > 10000 |  |  | 
Cc1ccc2c(=O)n(C)c3cc(-c4ccccc4)nn3c2c1 | 59 | inactive | inactive |  |  | 17 |  | 
COc1ccc(-c2ccc3c(=O)n(C)c4cc(-c5cccc(F)c5)nn4c3c2)cc1 | 2 | inactive | inactive |  |  | 6 |  | 
O=c1[nH]c2cc(-c3ccccc3)nn2c2cc(-c3ccccc3)ccc12 | 6 |  |  |  |  | 2 |  | 
Cc1ccc2c(=O)n(C)c3cc(-c4ccc(Cl)cc4)nn3c2c1 | 33 | inactive | inactive |  |  | 11 | 60 | 60
Cn1c(=O)c2ccc(-c3cccnc3)cc2n2nc(-c3cccc(F)c3)cc12 |  | inactive | inactive | 247 | 1560 |  |  | 
CC(=O)n1c(=O)c2ccc(-c3cccnc3)cc2n2nc(-c3ccccc3)cc12 |  |  |  | > 10000 | > 10000 |  |  | 
Cc1ccc2c(=O)n(C)c3cc(-c4ccc(F)cc4)nn3c2c1 |  | inactive | inactive | > 10000 | > 10000 |  |  | 
Cn1c(=O)c2ccc(-c3ccccc3)cc2n2nc(-c3ccc(Cl)cc3)cc12 | 31 | inactive | inactive |  |  | 4 | 60 | 60
O=c1c2ccc(-c3ccccc3)cc2n2nc(-c3ccccc3)cc2n1CCO | 3 |  |  |  |  | 0 |  | 
COc1ccc(-c2ccc3c(=O)n(C)c4cc(-c5cccc(Br)c5)nn4c3c2)cc1 | 23 | inactive | inactive |  |  | 4 |  | 
